{"source": "ChEMBL document CHEMBL3507680", "about": "“University of Dundee, Gates Library screen for HepG2 cell viability”"}
{"assay": "Human HepG2 cell viability assay in 384 well format", "type": "toxicity, cell-based", "design": "dose 125 nL, time 70.5 hour; cytotoxicity at 70.5 h: concentration not given beside the values", "details": "HepG2 cells, read-out: Inhibition", "units": {"cytotoxicity at 70.5 h": "%"}}
{"smiles": "Cc1cc(N)n(-c2ccc3nnc(C)n3n2)n1", "cytotoxicity at 70.5 h": 6.51}
{"smiles": "CC(Cn1cccn1)NCc1nc(-c2ccccc2Cl)no1", "note": "(stereo unspecified)", "cytotoxicity at 70.5 h": -19.9}
{"smiles": "CCc1n[nH]c(C2CN(C(=O)Cc3ccc(C)nc3)CCO2)n1", "note": "(stereo unspecified)", "cytotoxicity at 70.5 h": 9.01}
{"smiles": "O=C(CN1CCN(CCO)CC1)NC(C1CC1)C1CC1", "cytotoxicity at 70.5 h": -5.18}
{"smiles": "c1cnc(N2CCCC3(CCN(CC4CCOC4)CC3)C2)nc1", "note": "(stereo unspecified)", "cytotoxicity at 70.5 h": 19}
{"smiles": "Cc1nc(CN2C(=O)CC[C@@H]3[C@H]2CCN3C(=O)c2ccc[nH]2)cs1", "cytotoxicity at 70.5 h": -7.13}
{"smiles": "NC(=O)C1CCN(C(=O)c2ccn(-c3ccc(F)cc3)n2)CC1", "cytotoxicity at 70.5 h": 7.95}
{"smiles": "Cc1ccc(OCCCNC(=O)CN(C)c2ccc(C#N)cn2)cc1", "cytotoxicity at 70.5 h": 3.18}
{"smiles": "Cc1cc(O)c(OCC(=O)/N=c2\\[nH]cc(C)s2)cn1", "cytotoxicity at 70.5 h": -21}
{"smiles": "Cc1nc(-c2ccc(S(=O)(=O)N3CCSC3)cc2)co1", "cytotoxicity at 70.5 h": -10.2}
{"smiles": "COc1cc2cc3c(nc2cc1OC)OCCN(Cc1ccco1)C3", "cytotoxicity at 70.5 h": 8.51}
{"smiles": "Cc1cc(CN2CCC(CNS(=O)(=O)c3c(C)noc3C)CC2)c(C)o1", "cytotoxicity at 70.5 h": 2.34}
{"smiles": "c1csc(-c2nc(CNC3CCc4ncnn4C3)cs2)c1", "note": "(stereo unspecified)", "cytotoxicity at 70.5 h": -16.5}
{"smiles": "O=C(c1ccncc1F)N1CCc2ncnc(-c3ccncc3)c2CC1", "cytotoxicity at 70.5 h": 6.15}
{"smiles": "O=C(Cc1ccco1)N1C[C@@H]2COC[C@]2(COCC2CCOCC2)C1", "cytotoxicity at 70.5 h": -7.33}
{"smiles": "CCc1cnc(C)nc1NCCN1CCCC(C(N)=O)C1", "note": "(stereo unspecified)", "cytotoxicity at 70.5 h": 0.301}
{"smiles": "O=C(NCc1cccs1)NCC(O)(c1cccs1)C1CC1", "note": "(stereo unspecified)", "cytotoxicity at 70.5 h": -12.2}
{"smiles": "CC(C)n1nc2c(cc1=O)CN(CC(=O)N(C)c1nccs1)CC2", "cytotoxicity at 70.5 h": 6.02}
{"smiles": "COC(=O)CNC(=O)CCCn1cnc2ccccc2c1=O", "cytotoxicity at 70.5 h": -1.4}
{"smiles": "COc1cc(NC(=O)c2ccc(F)cc2Cl)c(C(=O)N(C)C)cc1OC", "cytotoxicity at 70.5 h": -8.85}
{"smiles": "Cc1noc([C@H]2C[C@H]3CN(C(=O)Cc4ccsc4)CC[C@H]3O2)n1", "cytotoxicity at 70.5 h": -9.17}
{"smiles": "Cc1cc(OC(F)F)c(C(=O)N2CCN(C3CC3)CC2)s1", "cytotoxicity at 70.5 h": -8.34}
{"smiles": "c1ccc(-c2nc3c(c(NCCn4ccnn4)n2)CCNCC3)nc1", "cytotoxicity at 70.5 h": -6.02}
{"smiles": "COCCOc1ccccc1C(=O)N1CCCCC1c1nccs1", "note": "(stereo unspecified)", "cytotoxicity at 70.5 h": 50.2}
{"smiles": "CCN1C(=O)[C@H]2CN(Cc3cccnc3)C[C@H]2C12CCN(C(C)=O)CC2", "cytotoxicity at 70.5 h": -10.7}
{"smiles": "Cn1nnnc1SCC1Cc2ccccc2O1", "note": "(stereo unspecified)", "cytotoxicity at 70.5 h": 26.1}
{"smiles": "CC(C(=O)Nc1nccs1)N1CCc2nn(C)c(=O)cc2C1", "note": "(stereo unspecified)", "cytotoxicity at 70.5 h": 20.7}
{"smiles": "CCn1nc2c(cc1=O)CN(Cc1nc3ccccc3c(=O)[nH]1)CC2", "cytotoxicity at 70.5 h": 0.253}
{"smiles": "COc1cccc(CNc2cc(C)nc(-c3ccncc3)n2)c1O", "cytotoxicity at 70.5 h": -7.57}
{"smiles": "CNc1cc(C)nc(N2C[C@H](C3CC3)[C@@H](N)C2)n1", "cytotoxicity at 70.5 h": 6.57}
{"smiles": "CCc1nnc(Nc2cc(C)nc(C3CCN(c4ncccn4)C3)n2)s1", "note": "(stereo unspecified)", "cytotoxicity at 70.5 h": 3.49}
{"smiles": "O=C1CC2(CCSC2)C(=O)N1Cc1ncc(-c2cccc(F)c2)o1", "note": "(stereo unspecified)", "cytotoxicity at 70.5 h": -1.19}
{"smiles": "COCC1CCN(S(=O)(=O)N2C[C@@H](C)[C@](O)(C3CC3)C2)CC1", "cytotoxicity at 70.5 h": -1.25}
{"smiles": "CS(=O)(=O)NC[C@]12COC[C@H]1CN(CC1CCCC1)C2", "cytotoxicity at 70.5 h": -12.8}
{"smiles": "NC(=O)CSCC(=O)NC1(c2cccc(Br)c2)CC1", "cytotoxicity at 70.5 h": 32.5}
{"smiles": "Cn1cc(NC(=O)C2CC(=O)N(c3n[nH]c4cccc(F)c34)C2)cn1", "note": "(stereo unspecified)", "cytotoxicity at 70.5 h": -26.5}
{"smiles": "CC(C)CCNc1nc(C(=O)NC2CC2)cs1", "cytotoxicity at 70.5 h": 6.98}
{"smiles": "COc1ccc(OCCCN(C)C(=O)C2CCCN2C(N)=O)cc1", "note": "(stereo unspecified)", "cytotoxicity at 70.5 h": -3.9}
{"smiles": "c1cc(CCN2CCCC2CN2CCCC2)ccn1", "note": "(stereo unspecified)", "cytotoxicity at 70.5 h": 30}
{"smiles": "CCc1nc(CN(C)C(=O)NC(C)c2cccc(NC(C)=O)c2)cs1", "note": "(stereo unspecified)", "cytotoxicity at 70.5 h": 12.9}
{"smiles": "Cc1ncsc1C(=O)NCC1SCCc2ccccc21", "note": "(stereo unspecified)", "cytotoxicity at 70.5 h": 6.22}
{"smiles": "C=C(Br)CN(C)C1CCN(CCc2ccccn2)CC1", "cytotoxicity at 70.5 h": -6.85}
{"smiles": "CC(C)C[C@H](N)c1nnc(SCC(N)=O)o1", "cytotoxicity at 70.5 h": 24.4}
{"smiles": "CCC(=O)NCC(=O)NCC(C)(C)c1cccc(Br)c1", "cytotoxicity at 70.5 h": -5.47}
{"smiles": "CCn1cc(NC(=O)NCCc2ccc3c(c2)OCCO3)cn1", "cytotoxicity at 70.5 h": -6.54}
{"smiles": "COCCC(=O)N1CCCC1c1nccnc1Nc1ncccn1", "note": "(stereo unspecified)", "cytotoxicity at 70.5 h": 16.8}
{"smiles": "C1=C(CNC2CCc3ncnn3C2)COc2ccccc21", "note": "(stereo unspecified)", "cytotoxicity at 70.5 h": -9.66}
{"smiles": "Cc1nnc(NC(=O)NCc2ccc(N3CCOCC3)nc2)s1", "cytotoxicity at 70.5 h": -5.81}
{"smiles": "CC(C(=O)NCc1ccco1)N1CCN(Cc2nccn2C)CC1", "note": "(stereo unspecified)", "cytotoxicity at 70.5 h": -5.54}
{"smiles": "O=C(CCOc1ccc(Br)cc1)N1CCN(c2cnccn2)CC1", "cytotoxicity at 70.5 h": 24.8}
{"smiles": "CCn1cnnc1CNC(=O)c1ccc(Br)cc1F", "cytotoxicity at 70.5 h": 22.3}
{"smiles": "CC(=O)C(C)CC(=O)N(Cc1cccc(C)c1)C(C)C", "note": "(stereo unspecified)", "cytotoxicity at 70.5 h": -1.29}
{"smiles": "Cc1cccnc1CN1CCCCC1c1ccn2ccnc2n1", "note": "(stereo unspecified)", "cytotoxicity at 70.5 h": -4.81}
{"smiles": "CN1CCN(c2ccccc2CNC(=O)Cc2ccccc2F)CC1", "cytotoxicity at 70.5 h": -5.79}
{"smiles": "O=C(CCn1cc(Cl)cn1)Nc1nncs1", "cytotoxicity at 70.5 h": 15.8}
{"smiles": "CC(C)NC(=O)O[C@H]1COCCN(c2nc3ccccc3s2)C1", "cytotoxicity at 70.5 h": -5.43}
{"smiles": "CN(C)C(=O)c1ccc(C(C(=O)O)N(C)Cc2ccccc2Cl)cc1", "note": "(stereo unspecified)", "cytotoxicity at 70.5 h": -8.81}
{"smiles": "CNC(=O)[C@@H]1C[C@H]2CN(Cc3c(C)noc3C)C[C@H]2N1C(C)C", "cytotoxicity at 70.5 h": -7.3}
{"smiles": "CCCNC(=O)c1nn(CC)cc1NC(=O)c1cn(C)nc1C", "cytotoxicity at 70.5 h": -12.7}
{"smiles": "CC(=O)NCC(=O)N1Cc2nccn2CC(CN(C)C(C)C)C1", "note": "(stereo unspecified)", "cytotoxicity at 70.5 h": -13.6}
{"smiles": "c1ccc2c(c1)nc1n2[C@@H](CNCc2nccs2)COC1", "cytotoxicity at 70.5 h": -19.6}
{"smiles": "Cc1noc(Cl)c1CC(=O)NCCOc1ccc(F)cc1F", "cytotoxicity at 70.5 h": -0.975}
{"smiles": "CNS(=O)(=O)c1ccc(C(=O)NC2CCc3nc(C)cn3C2)o1", "note": "(stereo unspecified)", "cytotoxicity at 70.5 h": -6.79}
{"smiles": "COc1cccc(OC2CN(C(=O)c3sccc3C)C2)c1", "cytotoxicity at 70.5 h": -4.06}
{"smiles": "O=C1CC(c2ccncc2)C2(CCN(Cc3ccc(F)cc3)CC2)N1", "note": "(stereo unspecified)", "cytotoxicity at 70.5 h": -9.81}
{"smiles": "c1ccc(NC[C@@H]2CCC[C@@H]3CN(c4ncccn4)C[C@@H]32)nc1", "cytotoxicity at 70.5 h": -13.7}
{"smiles": "Cc1cc(C)c2[nH]c(=O)c(CN3CCC(O)(CN(C)C)C3)cc2c1", "note": "(stereo unspecified)", "cytotoxicity at 70.5 h": -15.6}
{"smiles": "Cc1nc(C)n(CCCNc2ncnc(C)c2C)n1", "cytotoxicity at 70.5 h": 18}
{"smiles": "CN(C(=O)CN1CCCC1=O)C1CCCN(C2Cc3ccccc3C2)C1", "note": "(stereo unspecified)", "cytotoxicity at 70.5 h": -3.18}
{"smiles": "Cc1csc(CCNC(=O)C2CCN(CC(N)=O)CC2)n1", "cytotoxicity at 70.5 h": 8.97}
{"smiles": "CC(C)(C)S(=O)(=O)c1ccc(N2CCC(n3cncn3)CC2)cn1", "cytotoxicity at 70.5 h": 14.6}
{"smiles": "OCCN1CCCC(c2nccnc2Oc2ccc(F)cc2)C1", "note": "(stereo unspecified)", "cytotoxicity at 70.5 h": -2.84}
{"smiles": "CCn1cc(S(=O)(=O)N2CCC3(CCCN(CC4CCC4)C3=O)C2)cn1", "note": "(stereo unspecified)", "cytotoxicity at 70.5 h": -0.872}
{"smiles": "COCCNc1ccc(CNC(=O)Nc2cn[nH]c2)cc1", "cytotoxicity at 70.5 h": -16.6}
{"smiles": "N#Cc1cccc(C(=O)N2C[C@H]3CC[C@@H]2CN(C(=O)C2CCC2)C3)c1", "cytotoxicity at 70.5 h": -4.08}
{"smiles": "CC(C)OCCN(C)C(C)c1cccc(S(N)(=O)=O)c1", "note": "(stereo unspecified)", "cytotoxicity at 70.5 h": 22.5}
{"smiles": "CC(O)CN1CCN(Cc2coc(-c3cccc(Cl)c3)n2)CC1", "note": "(stereo unspecified)", "cytotoxicity at 70.5 h": -1.14}
{"smiles": "NC(=O)NC(=O)C(c1ccccc1)N1CCN(Cc2ccc(Cl)s2)CC1", "note": "(stereo unspecified)", "cytotoxicity at 70.5 h": -3.49}
{"smiles": "CC(Cc1cn(CCc2nc(N)cc(O)n2)nn1)c1ccccc1", "note": "(stereo unspecified)", "cytotoxicity at 70.5 h": -11.4}
{"smiles": "COCC1CN(C(=O)CC2=CCCCC2)Cc2nnn(CC3CC3)c21", "note": "(stereo unspecified)", "cytotoxicity at 70.5 h": -12}
{"smiles": "CC(C)c1cc(C(=O)N2CCOC3(CCCC3)C2)no1", "cytotoxicity at 70.5 h": -21.7}
